Assay results published in patent US9593149B2, “Amylin and calcitonin receptor agonist” (Novo Nordisk A/S, priority 2014, dated 2017).
pEC50, pIC50: −log10 of the molar value.

What was measured:
[1] = biological target: T1, human amylin 3(a) receptor (human calcitonin receptor + RAMP-3), BHK570 cells (Homo sapiens, UniProt O60896+P30988); experiment: Assay (II)a functional CRE-luciferase assay with albumin, human amylin receptor; type: cell-based; settings: Tested with HSA; read-out: hAmylin-R funct. EC50
T1 construct: host or cells: BHK570
Description: Assay(II)a—Human Calcitonin and Amylin Receptor Assay
1. Luciferase Assay Outline
Activation of calcitonin and amylin (co-expression of calcitonin receptor and receptor activity modifying proteins (RAMP)) receptors lead to increased intracellular concentrations of cAMP. Consequently, transcription is activated by promoters containing multiple copies of the cAMP response element (CRE). It is thus possible to measure amylin activity by the use of a CRE luciferase reporter gene introduced into BHK cells also expressing calcitonin or amylin receptors.
2. Construction of Calcitonin (a)—and Amylin 3(a)—Receptor/CRE-Luc Cell Line.
A BHK570 cell line was stably transfected with the human calcitonin receptor and a CRE-responsive luciferase reporter gene. The cell line was further transfected with RAMP-3, using standard methods. This turns the calcitonin receptor into an amylin 3(a) receptor. Methotrexate, Neomycin, and Hygromycin are selection markers for luciferase, the calcitonin receptor, and RAMP-3, respectively.
To perform activity assays, BHK calcitonin (a) receptor- or amylin 3(a)-receptor/CRE-luc cells were seeded in white 96 well culture plates at a density of about 20.000 cells/well. […] After incubation overnight at 37° C. and 5% CO2, the growth medium was replaced by 50 μl/well assay medium (DMEM (without phenol red), Glutamax™, 10% FBS, and 10 mM Hepes, pH 7.4). Further, 50 μl/well of standard or sample in assay buffer were added.
After 3 hours incubation at 37° C. and 5% CO2, the assay medium with standard or sample were removed and replaced by 100 μl/well PBS. Further, 100 μl/well LucLite™ was added. The plates were sealed and incubated at room temperature for 30 minutes. Finally, luminescence was tested on a TopCounter (Packard) in SPC (single photon counting) mode.

[2] = Assay (IV) determination of solubility; type: physicochemical
Protocol: Assay (IV)—Determination of Solubility
The mimylin peptide was dissolved in water at ˜500 nmol/ml and mixed 1:1 with a series of buffers (100 mM glycylglycine pH 3.0, 100 mM glycylglycine pH 4.0, 100 mM glycylglycine pH 5.0, 100 mM bistrispropane pH 6.0, 100 mM bistrispropane pH 6.5, 100 mM bistrispropane pH 7.0, 100 mM bistrispropane pH 7.5, 100 mM bistrispropane pH 8.0).

[3] = biological target: T2, human calcitonin receptor (Homo sapiens, UniProt P30988); experiment: Assay (VII) binding to the human calcitonin receptor (membrane, SPA); settings: membranes, 125I-Calcitonin; read-out: hCT-R binding IC50
T2 construct: expressed in transfected cells; host or cells: BHK tk'ts 13
T2 sequence (P30988 25-474): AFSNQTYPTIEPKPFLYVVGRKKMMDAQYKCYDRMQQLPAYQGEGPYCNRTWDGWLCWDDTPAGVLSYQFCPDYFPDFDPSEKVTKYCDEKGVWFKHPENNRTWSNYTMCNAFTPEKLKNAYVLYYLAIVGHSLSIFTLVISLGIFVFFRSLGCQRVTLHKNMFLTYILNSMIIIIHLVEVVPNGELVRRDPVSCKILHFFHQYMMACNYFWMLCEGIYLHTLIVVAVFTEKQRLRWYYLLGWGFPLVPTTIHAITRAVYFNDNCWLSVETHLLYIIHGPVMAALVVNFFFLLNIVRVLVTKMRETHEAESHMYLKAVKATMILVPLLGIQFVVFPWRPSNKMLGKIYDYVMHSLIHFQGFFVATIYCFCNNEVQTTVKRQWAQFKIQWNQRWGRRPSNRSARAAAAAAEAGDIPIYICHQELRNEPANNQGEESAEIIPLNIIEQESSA
Protocol: Assay (VII)—Determination of Binding to the Human Calcitonin Receptor (Membrane)
The binding assay was performed using scintillation proximity assay (SPA) beads (RPNQ0001) from PerkinElmer® and cell membranes prepared from a BHK tk'ts 13 cell line was stably transfected with the human calcitonin receptor and a CRE-responsive luciferase reporter gene. Membranes were prepared in the following way; the cells were rinsed with PBS and incubated with Versene for approximately 5 min before harvesting. The cells were flushed with PBS and the cell-suspension was centrifuged for 5 min at 1000 rpm. Cells were homogenized in a buffer containing 20 mM Na-HEPES and 10 mM EDTA (pH 7.4) and centrifuged at 20.000 rpm for 15 min. The resulting pellet was resuspended, homogenized and centrifuged (20.000 rpm, 15 min) in a buffer containing 20 mM Na-HEPES and 0.1 mM EDTA (pH 7.4, buffer 2). The resulting pellet was resuspended in buffer 2 and protein concentration was tested (BCA protein Assay, Pierce). The homogenate was kept cold during the whole procedure. The membranes were kept at −80° C. until use. Assay was performed in a 384 well Optiplate (PerkinElmer®) in a total volume of 40 ul. Membranes were mixed with SPA beads. Final concentration of membranes 35 ng/μL final and Final concentration of SPA beads was 0.05 mg/well. Test-compounds were dissolved in DMSO and further diluted in assay buffer (50 mM Hepes, pH 7.4, 1 mM CaCl2, 5 mM MgCl2, 0.1% OA and 0.02% Tween20). Radioligand ^125I-Calcitonin was dissolved in assay buffer and added to the Optiplate at a final concentration of 75 pM/well (approx. 30.000 cpm/10 ul). The final mixture was incubated for 120 min with shaking at 400 rpm at 25° C. prior to centrifugation (1500 rpm, 10 min). Samples were analyzed on TopCounter™ (Packard). The IC50 was calculated using (one site binding competition analysis) GraphPad Prism5 as a measure of receptor affinity.

[4] = biological target: T3, human calcitonin (a) receptor, BHK570 cells (Homo sapiens, UniProt P30988); experiment: Assay (II)b functional CRE-luciferase assay without albumin, human calcitonin receptor; type: cell-based; settings: Tested without HSA; read-out: hCTR funct. EC50
T3 construct: host or cells: BHK570
T3 sequence (P30988 25-474): T2 sequence (P30988 25-474)
In short: (§1)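 BHK570 cells stably expressing human calcitonin receptor with CRE-luciferase reporter, plus RAMP-3 for the amylin 3(a) line. Cells stimulated 3 hours at 37 °C in albumin-free assay medium (0.1% ovalbumin, 10 mM Hepes pH 7.4); cAMP-driven luciferase read by luminescence.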

[5] = biological target: T1, human amylin 3(a) receptor (human calcitonin receptor + RAMP-3), BHK570 cells; experiment: Assay (II)b functional CRE-luciferase assay without albumin, human amylin receptor; type: cell-based; settings: Tested without HSA; read-out: hAmylin-R funct. EC50
In short: as §1

T1 sequence (O60896 24-148, one chain of several): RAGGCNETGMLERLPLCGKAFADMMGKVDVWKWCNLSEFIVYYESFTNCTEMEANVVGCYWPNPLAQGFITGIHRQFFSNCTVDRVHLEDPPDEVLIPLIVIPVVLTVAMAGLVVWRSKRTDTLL

CC(=O)N[C@@H](C)C(=O)N[C@@H](CO)C(=O)N[C@@H](CCC(=O)O)C(=O)N[C@@H](CC(C)C)C(=O)N[C@@H](CO)C(=O)N[C@H](C(=O)N[C@@H](C)C(=O)N[C@@H](C)C(=O)N[C@@H](CC(C)C)C(=O)NCC(=O)N[C@@H](CCCNC(=N)N)C(=O)N[C@@H](CC(C)C)C(=O)N[C@@H](CO)C(=O)N[C@@H](C)C(=O)N[C@@H](CCC(=O)O)C(=O)N[C@@H](CC(C)C)C(=O)N[C@@H](Cc1c[nH]cn1)C(=O)N[C@@H](CCC(=O)O)C(=O)N[C@@H](CC(C)C)C(=O)N[C@@H](C)C(=O)N[C@H](C(=O)N[C@@H](CC(C)C)C(=O)N1CCC[C@H]1C(=O)N[C@@H](CCCNC(=N)N)C(=O)N[C@H](C(=O)N[C@@H](CCCCNC(=O)CC[C@H](NC(=O)CCCCCCCCCCCCCCCCCCC(=O)O)C(=O)O)C(=O)N[C@H](C(=O)NCC(=O)N[C@@H](CO)C(=O)NCC(=O)N[C@@H](CO)C(=O)N1CCC[C@H]1C(N)=O)[C@@H](C)O)[C@@H](C)O)[C@@H](C)O)[C@@H](C)O [compound 71, [N-terminal(acetyl), des1, 27K(C20 diacid-gGlu), 30S, 31G]mimylin]
pEC50 [1]: 9.79 | solubility at 18 h ([2]; bistrispropane buffer, pH 6.5): ≥ 200 µM | solubility at 18 h ([2]; bistrispropane buffer, pH 7.5): ≥ 200 µM | solubility at 18 h ([2]; bistrispropane buffer, pH 6.0): ≥ 200 µM | solubility at 18 h ([2]; bistrispropane buffer, pH 7.0): ≥ 200 µM | solubility at 18 h ([2]; bistrispropane buffer, pH 8.0): ≥ 200 µM | solubility at 18 h ([2]; glycylglycine buffer, pH 3.0): ≥ 200 µM | solubility at 18 h ([2]; glycylglycine buffer, pH 4.0): ≥ 200 µM | solubility at 18 h ([2]; glycylglycine buffer, pH 5.0): ≥ 200 µM | pIC50 [3]: 10.15 | pEC50 [4]: 10.52 | pEC50 [5]: 10.28
